From patent US10344019B2 (priority 2010, dated 2019)
Where two headings read alike, the source gives them in different places.

Key:
Test in all cases: microbe, parasite or virus in culture
Assay type in all cases: cell-based
[1] = tested on: HCV 1b RLuc cells (dicistronic genotype 1b Con1 replicon, RLuc reporter)
Method: (§1) Evaluation of cell-based anti-HCV activity: Antiviral potency (EC50) was determined using a Renilla luciferase (RLuc)-based HCV replicon reporter assay. To perform the assay for genotype 1 and 2a JFH-1, HCV 1b RLuc cells (harboring a dicistronic genotype 1b Con1 replicon that encodes a RLuc reporter), or HCV 1a RLuc cells (harboring a dicistronic genotype 1a H77 replicon that encodes a RLuc reporter), or HCV 2a JFH-1 Rluc cells (harboring a dicistronic genotype 2a JFH-1 replicon that encodes a RLuc reporter) were dispensed into 384-well plates. To perform the assay for genotype 2a (with M31 present) or 2b, HCV 2a Rluc or 2b Rluc cells (both with M31 present) harboring a dicistronic NS5A chimeric genotype 2a JFH-1 replicon that encodes a RLuc reporter and either genotype 2a J6 strain NS5A gene or genotype 2b MD2b-1 NS5A gene (based on Los Alamos HCV database isolates, both with M31 present) respectively, were dispensed into 384-well plates. To perform the assay for genotype 3 and 4, HCV 3a RLuc or 4a Rluc cells harboring a dicistronic NS5A chimeric genotype 1b Con1 replicon that encodes a RLuc reporter and either a consensus genotype 3a NS5A gene or genotype 4a NS5A gene (based on Los Alamos HCV database isolates) respectively, were dispensed into 384-well plates. Compounds were re-suspended in DMSO at a concentration of 10 mM and serially diluted in DMSO either manually or using an automated pipeting instrument. Serially diluted compounds were mixed with cell culture media and added to the seeded cells. […] 72 hours later, cells were lysed and Renilla luciferase activity quantified as recommended by the manufacturer (Promega-Madison, Wis.). Non-linear regression was performed to calculate EC50 values.

[2] = tested on: HCV 1a RLuc cells (dicistronic genotype 1a H77 replicon, RLuc reporter); details: genotype 1a H77 replicon, 72 hours, read-out: 1a
Method: as §1

[3] = tested on: HCV 2a JFH-1 Rluc cells (dicistronic genotype 2a JFH-1 replicon, RLuc reporter); details: genotype 2a JFH-1 replicon, 72 hours, read-out: 2a JFH
Method: as §1

[4] = tested on: HCV 3a RLuc cells (NS5A chimeric genotype 1b Con1 replicon with consensus genotype 3a NS5A gene); details: genotype 3a NS5A chimeric replicon
Method: as §1

[5] = Hepatitis C virus, 72 h, read-out: 1b (nM)
[6] = Hepatitis C virus, 72 h, Table 1
[7] = Hepatitis C virus, 72 h, Table 2
[8] = Hepatitis C virus, read-out: 3a, Table 2

With `COC(=O)N[C@H](C(=O)N1CCC[C@H]1c1ncc(-c2ccc3c4c(ccc3c2)-c2ccc(-c3cnc([C@@H]5CCCN5C(=O)C(c5ccccc5)N(C)C)[nH]3)cc2CO4)[nH]1)C(C)C` (some centres unmarked) [Example 3] the EC50 [1, 5] was 0.011 nM, the EC50 [2, 6] was 0.001 to 0.999 nM and the EC50 [3, 6] was 0.001 to 0.999 nM. The EC50 ([4]; Hepatitis C virus, read-out: 3a, Table 1) was 0.001 to 0.99 nM.

For `COC(=O)NC(C(=O)N1CCC[C@@H]1c1ncc(-c2cc3c4c(c2)OCc2cc(-c5cnc([C@H]6CCCN6C(=O)[C@@H](NC(=O)OC)C(C)C)[nH]5)cc(c2-4)OC3)[nH]1)C(C)C` (some centres unmarked) [Example 11], the EC50 [1, 5] was 0.258 nM, the EC50 [2, 6] was 1 to 44 nM and the EC50 [3, 6] was 0.001 to 0.999 nM.

`COC(=O)N[C@H](C(=O)N1CCC[C@H]1c1ncc(-c2ccc(-c3ccc4cc(-c5cnc([C@@H]6CCCN6C(=O)[C@H](NC(=O)OC)c6ccccc6)[nH]5)ccc4c3)cc2)[nH]1)C(C)C` [Example 27] was tested, and the EC50 ([1]; read-out: 1b) was 0.011 nM, the EC50 ([2]; Table 2) was 0.001 to 0.999 nM and the EC50 ([3]; Table 2) was 0.001 to 0.999 nM. The EC50 ([4]; read-out: 3a, Table 2) was 0.001 to 0.99 nM.

For `COC(=O)N[C@H](C(=O)N1[C@@H]2CC[C@@H](C2)[C@H]1c1ncc(-c2ccc(-c3ccc4cc(-c5cnc([C@@H]6CC7(CC7)CN6C(=O)C(c6ccccc6)N6CCOCC6)[nH]5)ccc4c3)cc2)[nH]1)C(C)C` (some centres unmarked) [Example 28], the EC50 [1, 5] was 0.023 nM, the EC50 [2, 7] was 1 to 44 nM and the EC50 [3, 7] was 1 to 44 nM. It also gave an EC50 [4, 8] of 0.001 to 0.99 nM.

`COC(=O)N[C@H](C(=O)N1CCC[C@H]1c1ncc(-c2ccc3cc(-c4ccc(-c5cnc([C@@H]6CCCN6C(=O)[C@H](NC(=O)OC)c6ccccc6)[nH]5)cc4)ccc3c2)[nH]1)C(C)C` [Example 29] was tested, and the EC50 [1, 5] was 0.014 nM, the EC50 [2, 7] was 0.001 to 0.999 nM and the EC50 [3, 7] was 0.001 to 0.999 nM. It also gave an EC50 [4, 8] of 0.001 to 0.99 nM.

`COC(=O)N[C@H](C(=O)N1CCC[C@H]1c1ncc(-c2ccc(-c3ccc4cc(-c5cnc([C@@H]6CCCN6C(=O)[C@H](NC(=O)OC)c6ccccc6)[nH]5)ccc4c3)cc2)[nH]1)C(C)C` [Example 30] showed an EC50 [1, 5] of 0.008 nM, an EC50 [2, 7] of 0.001 to 0.999 nM and an EC50 [3, 7] of 0.001 to 0.999 nM. The EC50 [4, 8] was 0.001 to 0.99 nM.

In the case of `COC(=O)N[C@H](C(=O)N1CCC[C@H]1c1nc(-c2ccc3cc(-c4ccc(-c5cnc([C@@H]6CCCN6C(=O)[C@@H](c6ccccc6)N(C)C)[nH]5)cc4)ccc3c2)c[nH]1)C(C)C` [Example 31], the EC50 [1, 5] is reported as 0.014 nM, the EC50 [2, 7] is reported as 0.001 to 0.999 nM and the EC50 [3, 7] is reported as 0.001 to 0.999 nM. It also gave an EC50 [4, 8] of 0.001 to 0.99 nM.

In the case of `COC(=O)N[C@H](C(=O)N1CCC[C@H]1c1ncc(-c2ccc3cc(-c4ccc(-c5cnc([C@@H]6C[C@H](C)CN6C(=O)[C@H](NC(=O)OC)c6ccccc6)[nH]5)cc4)ccc3c2)[nH]1)C(C)C` [Example 32], the EC50 [1, 5] is reported as 0.02 nM, the EC50 [2, 7] is reported as 0.001 to 0.999 nM and the EC50 [3, 7] is reported as 0.001 to 0.999 nM. For the same molecule, the EC50 [4, 8] was > 5 nM.

With `COC(=O)N[C@H](C(=O)N1CC(=O)C[C@H]1c1ncc(-c2ccc(-c3ccc4cc(-c5cnc([C@@H]6CCCN6C(=O)[C@@H](c6ccccc6)N(C)C)[nH]5)ccc4c3)cc2)[nH]1)C(C)C` [Example 33] the EC50 [1, 5] was 0.009 nM, the EC50 [2, 7] was 0.001 to 0.999 nM and the EC50 [3, 7] was 0.001 to 0.999 nM. The EC50 [4, 8] was 0.001 to 0.99 nM.

`COC(=O)N[C@H](C(=O)N1CCC[C@H]1c1ncc(-c2ccc3cc(-c4ccc(-c5cnc([C@@H]6CC(=O)CN6C(=O)[C@@H](c6ccccc6)N(C)C)[nH]5)cc4)ccc3c2)[nH]1)C(C)C` [Example 34] was tested, and the EC50 [1, 5] was 0.018 nM, the EC50 [2, 7] was 0.001 to 0.999 nM and the EC50 [3, 7] was 0.001 to 0.999 nM. It also gave an EC50 [4, 8] of 0.001 to 0.99 nM.

In the case of `COC(=O)N[C@H](C(=O)N1CC2(C[C@H]1c1ncc(-c3ccc(-c4ccc5cc(-c6cnc([C@@H]7CCCN7C(=O)[C@H](NC(=O)OC)c7ccccc7)[nH]6)ccc5c4)cc3)[nH]1)OCCO2)C(C)C` [Example 35], the EC50 [1, 5] is reported as 0.008 nM, the EC50 [2, 7] is reported as 0.001 to 0.999 nM and the EC50 [3, 7] is reported as 0.001 to 0.999 nM. It also gave an EC50 [4, 8] of 0.001 to 0.99 nM.

`CCN(CC)[C@@H](C(=O)N1CCC[C@H]1c1ncc(-c2ccc3cc(-c4ccc(-c5cnc([C@@H]6CC7(COCO7)CN6C(=O)[C@@H](NC(=O)OC)C(C)C)[nH]5)cc4)ccc3c2)[nH]1)c1ccccc1` (some centres unmarked) [Example 36] gave an EC50 [1, 5] of 0.01 nM, an EC50 [2, 7] of 0.001 to 0.999 nM and an EC50 [3, 7] of 0.001 to 0.999 nM. It also gave an EC50 [4, 8] of 0.001 to 0.99 nM.
